In PubChem BioAssay (NCI):
Where “and” joins values, the source holds several entries; their conditions need not be identical. Equal values may be shown once.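 Method: 48-hour compound exposure of cells in 96-well plates, five concentrations, linear interpolation of endpoints. Abbreviation: GI50, concentration required for 50% inhibition of growth. At the TGI there is no net growth.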

Legend:
Assay in all cases: DTP human tumour cell line panel, 48 h
[1] = tested on: SK-MEL-2 melanoma
[2] = tested on: NCI-H460 lung
[3] = tested on: OVCAR-4 ovarian
[4] = tested on: HCT-116 colon
[5] = tested on: CAKI-1 renal
[6] = tested on: SK-MEL-28 melanoma
[7] = tested on: SN12C renal
[8] = tested on: OVCAR-3 ovarian
[9] = tested on: RXF 393 renal
[10] = tested on: 786-0 renal

| SMILES | TGI [1] [µM] | TGI [2] [µM] | TGI [3] [µM] | TGI [4] | TGI [5] [µM] | TGI [6] [µM] | TGI [7] [µM] | TGI [8] | TGI [9] | TGI [10] [µM] | GI50 [1] | GI50 [2] | GI50 [3] | GI50 [4] | GI50 [5] [µM] | GI50 [6] | GI50 [7] | GI50 [8] | GI50 [9] | GI50 [10] |
| --- | --- | --- | --- | --- | --- | --- | --- | --- | --- | --- | --- | --- | --- | --- | --- | --- | --- | --- | --- | --- |
| O=[N+]([O-])[C@@H]1C2C=CC(C2)[C@H]1Cl (stereo partly specified) | > 100 | > 100 | > 100 | > 100 µM | > 100 | > 100 | > 100 | > 100 µM | > 100 µM | > 100 |  |  |  |  |  |  |  |  |  |  |
| O=C(c1ccc2ccccc2c1)c1c(C(F)(F)F)n([O-])c2cc(Cl)c(Cl)cc2[n+]1=O | 2.99 | 4.15 | 3.17 | 2.92 µM | 2.63 | 3.57 | 3.1 | 2.69 µM | 3.04 µM | 3.06 | 1.64 µM | 2.02 µM | 1.54 µM | 1.58 µM | 1.35 | 1.74 µM | 1.73 µM | 1.39 µM | 1.6 µM | 1.69 µM |
| CC(=O)Nc1cccc(-n2c(=O)n(C3CC3)c(=O)c3c(Nc4ccc(I)cc4F)n(C)c(=O)c(C)c32)c1 | 0.0544 | > 93.6 | > 100 | 12.5 µM and > 10 µM | > 46.5 |  | > 100 | 60.9 µM and > 10 µM | 13.1 µM and > 5.97 µM | > 57.7 | < 0.01 µM and 0.002 µM | 3.19 µM and > 4.26 µM | 0.515 µM and 2.65 µM | < 0.01 µM and 0.00986 µM | 0.203 | < 0.01 µM and 0.0018 µM | 2.39 µM and > 2.41 µM | 8.33 µM and > 10 µM | 0.0661 µM and 0.148 µM | 4.02 µM and > 7.71 µM |
| NC(CO)Cc1cnc[nH]1 (stereo unspecified) | > 100 | > 100 | > 10 | > 100 µM | > 100 | > 100 | > 100 | > 100 µM | > 10 µM | > 100 | > 100 µM | > 100 µM |  | > 100 µM |  | > 100 µM | > 100 µM | > 100 µM |  | > 100 µM |
| COc1cc(C(=O)NC2c3ccccc3-c3ccccc32)c(N)cc1OCc1ccccc1 | 98.9 | > 100 | 32.2 | > 82.7 µM | 63.8 | > 92.7 | 48.9 | > 87.3 µM | 34.7 µM | > 60.8 | 33.7 µM | 35.1 µM | 5.16 µM | 20.3 µM | 16.1 | 25.2 µM | 11.4 µM | 24.2 µM | 13.5 µM | 21.4 µM |
| Cc1cc([C@@H](C)Nc2ccccc2C(=O)O)c2nc(N3CCOCC3)cc(=O)n2c1 | > 10 | > 10 | > 10 | > 10 µM | > 10 | > 10 | > 10 | > 10 µM | 1.33 µM | > 10 | > 10 µM | > 10 µM | > 10 µM | 2.76 µM | 6.28 | > 10 µM | > 10 µM | 6.02 µM | 0.0564 µM | 1.23 µM |
| Oc1ccccc1/C=N/Nc1ccc2ccccc2n1 | > 100 | 20.3 | 18.6 | > 100 µM | > 100 | > 100 | > 100 | 13.8 µM | > 100 µM | > 100 | 30 µM | 3.38 µM | 2.42 µM | 4.51 µM | 2.98 | 11.8 µM | 4.92 µM | 2.82 µM | 18.3 µM | 5.81 µM |
| COc1ccc(NC(=O)Nc2n[nH]c3ccccc23)cc1 | > 100 | > 100 | > 100 | > 100 µM | > 100 | > 100 | > 100 | > 100 µM | > 100 µM | > 100 | > 100 µM | > 100 µM | > 100 µM | > 100 µM | > 100 | > 100 µM | > 100 µM | > 100 µM | > 100 µM | > 100 µM |
| COc1cc2ncn(-c3cc(OCc4ccccc4Cl)c(C(N)=O)s3)c2cc1OC | > 15.9 | > 8.64 | > 25 | > 22.1 µM | > 25 | > 25 | > 25 | 1.99 µM | 4.22 µM | > 22.8 | 1.5 µM | 0.146 µM | 2.09 µM | 0.233 µM | 3.02 | 1.46 µM | 1.48 µM | 0.0867 µM | 0.102 µM | 0.873 µM |
| CN1CCN(CC#Cc2cccc(C(=O)c3cnn(-c4ccc(F)cc4)c3N)c2)CC1 | > 25 | > 25 | > 25 | > 25 µM | > 25 | > 25 | > 25 | > 25 µM | > 25 µM | > 25 | > 25 µM | > 25 µM | > 25 µM | > 25 µM | > 25 | > 25 µM | > 25 µM | > 25 µM | > 25 µM | > 25 µM |
| CN=C(N)N/N=C(\c1ccccc1)c1ccc(Br)cc1 | 1.97 | 9.05 | 15.2 | 3.3 µM | 13.2 | 5.38 | 6.27 | 2.55 µM | 0.711 µM | 4.91 | 0.359 µM | 0.355 µM | 0.713 µM | 0.309 µM | 0.596 | 0.844 µM | 0.451 µM | 0.29 µM | 0.247 µM | 0.523 µM |
| O=C(C#Cc1c[nH]c(=O)[nH]c1=O)c1ccccc1Cl | 29.9 | 67.7 | 31.1 | 30.9 µM | 31.3 | 32 | 27.5 | 27.3 µM | 14.7 µM | 32 |  |  |  |  |  |  |  |  |  |  |
| CCn1c(-c2nonc2N)nc2c(C#CCN)ncc(OCCCN)c21 | > 25 | > 25 | > 25 | > 25 µM | > 25 | > 25 | > 25 | > 25 µM | > 25 µM | > 25 | > 25 µM | > 25 µM | > 25 µM | > 25 µM | > 25 | > 25 µM | > 25 µM | > 25 µM | > 25 µM | > 25 µM |
| COc1cc(-n2cc(-c3ccc(Cl)c(Cl)c3)nc2SCc2ccccc2)cc(OC)c1OC | > 100 | > 100 | > 100 | > 100 µM | > 100 | > 100 | > 100 | > 100 µM | > 100 µM | > 100 | > 100 µM | > 100 µM | > 100 µM | 80.7 µM | > 100 | > 100 µM | > 100 µM | > 100 µM | 92.5 µM | > 100 µM |
